For one molecule, Activity results are on record in ChEMBL document CHEMBL2073761, “Celastraceae sesquiterpenes as a new class of modulators that bind specifically to human P-glycoprotein and reverse cellular multidrug resistance” (Cancer Res, 2004).

In this series the target is ATP-dependent translocase ABCB1 (Homo sapiens, UniProt P08183). Put plainly: TP_TRANSPORTER: efflux of Tetramethylrosamine in membrane vesicles from reconstituted PMPC proteoliposomes containing P-glycoprotein. The class given is functional, cell membranes, Membrane vesicle from reconstituted proteoliposome.
Chain of ATP-dependent translocase ABCB1 (P08183 whole entry): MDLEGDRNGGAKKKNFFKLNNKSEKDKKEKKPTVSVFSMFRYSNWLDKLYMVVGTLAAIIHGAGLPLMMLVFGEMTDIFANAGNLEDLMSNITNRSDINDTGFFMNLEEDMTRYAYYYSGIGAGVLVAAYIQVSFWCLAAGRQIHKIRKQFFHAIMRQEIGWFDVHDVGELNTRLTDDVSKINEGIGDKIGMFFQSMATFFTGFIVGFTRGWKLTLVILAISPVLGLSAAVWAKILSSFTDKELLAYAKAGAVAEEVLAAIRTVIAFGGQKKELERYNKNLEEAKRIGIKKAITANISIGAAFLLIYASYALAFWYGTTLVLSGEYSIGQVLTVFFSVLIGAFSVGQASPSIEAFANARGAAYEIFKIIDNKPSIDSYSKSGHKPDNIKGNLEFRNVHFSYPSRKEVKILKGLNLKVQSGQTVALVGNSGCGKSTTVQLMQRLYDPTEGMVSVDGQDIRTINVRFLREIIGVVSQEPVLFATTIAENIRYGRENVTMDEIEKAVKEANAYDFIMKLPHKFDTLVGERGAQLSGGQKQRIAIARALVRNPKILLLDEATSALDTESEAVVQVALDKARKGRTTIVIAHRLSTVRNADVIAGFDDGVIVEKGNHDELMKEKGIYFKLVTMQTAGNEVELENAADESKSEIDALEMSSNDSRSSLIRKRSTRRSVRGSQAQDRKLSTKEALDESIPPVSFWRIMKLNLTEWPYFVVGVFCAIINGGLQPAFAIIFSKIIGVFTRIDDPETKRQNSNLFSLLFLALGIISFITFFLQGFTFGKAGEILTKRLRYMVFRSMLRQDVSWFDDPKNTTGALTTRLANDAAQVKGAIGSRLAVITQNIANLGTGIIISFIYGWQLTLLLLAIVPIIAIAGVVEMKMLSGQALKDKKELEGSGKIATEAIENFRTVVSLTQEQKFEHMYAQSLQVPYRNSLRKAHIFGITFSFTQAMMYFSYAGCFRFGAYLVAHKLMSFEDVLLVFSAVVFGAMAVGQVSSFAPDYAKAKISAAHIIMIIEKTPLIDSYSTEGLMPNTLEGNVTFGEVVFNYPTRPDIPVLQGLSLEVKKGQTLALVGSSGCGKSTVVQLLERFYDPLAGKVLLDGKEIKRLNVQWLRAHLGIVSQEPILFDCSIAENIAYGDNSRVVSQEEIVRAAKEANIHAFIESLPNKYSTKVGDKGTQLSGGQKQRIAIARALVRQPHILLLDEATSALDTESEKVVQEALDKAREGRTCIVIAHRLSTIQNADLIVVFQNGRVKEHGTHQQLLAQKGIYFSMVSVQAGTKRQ

Structures are written as SMILES.

For the molecule `CN(C)c1ccc2c(-c3ccc(CCl)cc3)c3ccc(=[N+](C)C)cc-3oc2c1.[Br-]` [TETRAMETHYLROSAMINE], the Activity result is “inhibitor [+]”.
